Test results as given in paper PMC11784013, “Potassium molybdate blocks APN-dependent coronavirus entry by degrading receptor via PIK3C3-mediated autophagy” (Journal of Virology, 2024).

Key:
[1] = type: in vivo; conditions: piglets, oral PM 100 mg/kg
Protocol: Neonatal pigs spontaneously delivered from sows were confirmed to be negative for TGEV by RT-qPCR and enzyme-linked immunosorbent assay. For the cytotoxicity and pharmacokinetic parameters of the PM, three piglets were orally administered PM (100 mg/kg), and the serum was collected by venipuncture at 0, 1, 2, 4, 6, 8, 10, 12, 16, and 24 h after oral administration of PM for cytotoxicity assays and pharmacokinetic parameter determination. For antiviral animal experiments, piglets were randomly separated into four groups: the mock group ([3]), TGEV group ([3]), TGEV-PM-therapy group ([3]), and TGEV-PM-prevention group ([3]). For the TGEV group, neonatal pigs were orally administered 1.245 × 10^8 PFU TGEV Miller for 24 h. In addition, piglets in the TGEV-PM therapy group were orally infected with 1.245 × 10^8 PFU TGEV Miller and then treated with PM (100 mg/kg). […] The body weights of all piglets were recorded, and anal swabs were collected every 12 h. […]
Fig. S9. […] (A) The serum of piglets orally administered PM were collected at 1, 2, 4, 6, 8, 10, 12, 16 and 24 hours respectively and AST, CK and CREA level in those sera were measured by biochemical parameters. (B) PM concentrations at indicated times in piglets were determined by ICP-MS. […]

[2] = test system: PIK3C3-BECN1-ATG14 complex; assay: Co-IP and confocal analysis of PtdIns3K complex assembly in ST cells; type: cell-based, porcine; conditions: 36 h
Protocol: Fig 8 PM promotes PIK3C3-BECN1-ATG14 complex assembly by enhancing PIK3C3 Ser249 phosphorylation. (A) ST cells were transfected with pCMV-Myc-PIK3C3 and pCDNA3.1-Flag-BECN1 for 12 h and then treated with PM (10 mM) for 36 h. The Co-IP was carried out by Flag or Myc Ab, followed by western blot analysis. (B) ST cells were transfected with pCDNA3.1-Flag-BECN 1 and pCDNA3.4-His-ATG14 for 12 h and treated with PM (10 mM) for 36 h. The Co-IP was performed with Flag or […] Ab, followed by western blot detection. (C–E) ST cells were transfected with pCMV-Myc-PIK3C3, pCDNA3.1-Flag-BECN1, and pCDNA3.4-His-ATG14 for 12 h, and PM (10 mM) was added to the cells for 36 h. Then Co-IP was performed with a Myc, Flag, and His Ab individually, and all IPs, input, and phosphorylation of PIK3C3 (Ser249), BECN1 (Ser14), and ATG14 (Ser29) were detected by western blot. (F) ST cells were transfected with pCMV-Myc-PIK3C3, pCDNA3.1-Flag-BECN1, and pCDNA3.4-His-ATG14 for 12 h, and PM (10 mM) was added to the cells for 36 h, which detected by IFA, scale bar: 20 µm. (G) Quantification of PIK3C3-BECN1-ATG14 complex (merged signal) from F using Image J software. (H) ST cells were transfected with pCMV-Myc-PIK3C3 or pCMV-Myc-PIK3C3 mutant, pCDNA3.1-Flag-BECN1 and pCDNA3.4-His-ATG14 for 12 h and then treated with PM (10 mM) for 36 h. Then Co-IP was performed with a Myc, Flag, and His Ab individually, and all IPs, input, and phosphorylation of PIK3C3 (Ser249), BECN1 (Ser14), and ATG14 (Ser29) were detected by western blot. Results are presented as mean ± SD of data from three independent experiments. ***, P ≤ 0.001.
Cotransfected cells were washed with cold PBS twice and lysed with NP40 lysis buffer (Beyotime, China, P0013F) supplemented with 1 mM PMSF (Beyotime, China, ST506) and phosphatase inhibitors (Beyotime, China, P1096). […] Immunoprecipitated proteins were detected by western blotting. […]

## [K+].[K+].[O]=[Mo](=[O])([O-])[O-] [PM, potassium molybdate]
[1]
  safety of the dose: safe concentration
[1]; serum at 0-24 h
  aminotransferase (AST), creatine kinase (CK) and creatinine (CERA) levels: did not affect
[2]; ST cells co-transfected with Myc-PIK3C3, Flag-BECN1, His-ATG14, PM 10 mM
  PIK3C3 Ser249 phosphorylation: upregulation of PIK3C3 Ser249 phosphorylation
[2]; ST cells, PM 10 mM
  colocalization of Myc-PIK3C3, Flag-BECN1 and His-ATG14 (confocal microscopy): enhanced the colocalization
  interaction between Myc-PIK3C3 and Flag-BECN1 (Co-IP): increased after PM treatment
